# Laboratory results published in patent publication US10016425B2, “Anti-ulcerative colitis compound” (KING SAUD UNIVERSITY, priority 2016, dated 2018).
# Tests used:
# [1] = tested on: Acetic Acid-induced Colitis; assay: Acetic acid-induced colitis in rats (prophylactic effect, macroscopic scoring); type: in vivo, male Wistar rats; details: for percent protection of control colitis: 50 mg/kg orally; for anti-ulcerative colitis activity (in words): administrated orally to rats, 50 mg/kg
# Experimental: (§1) The anti-ulcerative colitis compounds were tested on Swiss albino mice of both genders (26-30 g), as well as male Wistar rats (180-200 g). The animals were housed in standard polypropylene cages with wire mesh tops and maintained under standard conditions (temperature of 23±1.0° C., humidity of 55±10%, 12 h light/12 h dark cycle). They were fed with a standard pellet diet with water ad libitum and were allowed to adapt to the laboratory environment for one week before experimentation.
# In order to examine the effect of the treatment compounds on ulcerative colitis, five groups of six rats were used. Two groups received compounds 5 and 6 at a dose of 50 mg/kg of body weight. Three other groups of animals were used, with two receiving water orally and the third receiving dexamesathone at a dose of 0.1 mg/kg orally, serving as control, control colitis and standard groups, respectively. All medications were administrated for five successive days. Two hour after the last dose, ulcerative colitis was induced by slowly infusion of 2 mL (4%, v/v) of acetic acid in saline into the colon through a catheter. Two days after the induction of colitis, the animals were sacrificed and colonic segments (8 cm in length and 3 cm proximal to the anus) were excised, opened and were used for macroscopic scoring.
# To assess colonic lesions, the colon specimens were weighted and the wet weight/length ratio was calculated for all of the animals. The specimens were examined under a dissecting microscope and mucosal lesions were quantified by the scoring system (0-5): 0=no damage, 1=local edema and inflammation without ulcers; 2=one ulcer without inflammation; 3=one to two ulcers with inflammation and lesion diameter <1 cm; 4=more than two ulcers with lesion diameter 1-2 cm; 5=severe ulceration with lesion diameter >2 cm.
# Ulcer area was measured using a plane glass square. Each cell on the glass square was 1 mm^2 in area and the number of cells were counted and the ulcer area was determined for each colon. Ulcer index was measured by summing the lesion score and the ulcer area for each colon specimen. All values were expressed as mean±S.D. Statistical analysis was performed using SPSS 10. Statistical significance of differences between two means was assessed by unpaired student's T-test. Differences at p<0.05, 0.01, and 0.001 were considered statistically significant.
# Swiss albino mice = details: mouse, in vivo
# Experimental: as §1
# In order to determine the oral median lethal dose (LD50) of the anti-ulcerative colitis compound, the Swiss albino mice (in groups of six), received one of 50, 100, 500, or 1000 mg/kg doses of the target compound. Control animals received the pharmaceutical vehicle only and were kept under the same conditions. Signs of acute toxicity and the number of deaths per dose within 24 hours were recorded.
# [2] = tested on: Liver and Kidney Functions; assay: Effect on liver and kidney functions in rats after 15 days oral dosing; type: in vivo, male Wistar rats; set-up: ALT / AST: dose or concentration left out as unconfirmed; details: oral 15 days; for Blood Urea / ALT / AST / Creatinine: mean ± SD, n = 10; for hepatotoxic manifestation / nephrotoxic manifestations: no significant difference to control at 0.05 level; for ALT / AST / Creatinine: serum
# Experimental: as §1
# The male Wister rats were divided into two equal groups each having ten rats. […] After the examination period, 6 hours after the last dose blood samples were collected from the orbital plexus of rats, samples were left to clot at room temperature for 30 minutes and then centrifuged at 1000 rpm for 20 minutes. The collected sera were used for determination of the activity of both […] (AST) and alanine aminotransferase (ALT) as liver markers. Additionally, levels of blood urea and serum creatinine were also estimated as kidney markers.
structure (smiles),measurement,setting,value
"C[C@@H]1C[C@H]2[C@@H]3CCC4=CC(=O)C=C[C@]4(C)[C@@]3(F)[C@@H](O)C[C@]2(C)[C@@]1(O)C(=O)CO [Dexamethasone, reference compound]",percent protection,[1]; 0.1 mg/kg orally,72.2%
"COc1cc(/C=N/n2c(-c3ccc(C)cc3)nc3ccccc3c2=O)ccc1O [Compound 5, 3-[(4-hydroxy-3-methoxy-benzylidene)-amino]-2-p-tolyl-3H-quinazolin-4-one]",percent protection of control colitis,[1],51.2%
same,anti-ulcerative colitis activity (in words),[1],potent anti-ulcerative colitis activity
same,behavioral changes and/or mortality in mice,Swiss albino mice,did not produce any behavioral changes and/or mortality
same,Blood Urea,[2],65.50 ± 1.9 mg/dL
same,hepatotoxic manifestation,[2],do not result in hepatotoxic manifestation
same,nephrotoxic manifestations,[2],no apparent nephrotoxic manifestations
same,ALT,[2],38.67 ± 0.22 U/l
same,AST,[2],63.23 ± 0.39 U/l
same,Creatinine,[2],0.85 ± 0.02 mg/dL
"COc1cc(/C=N/n2c(-c3ccc(C)cc3)nc3ccccc3c2=O)cc(OC)c1OC [Compound 6, 2-p-tolyl-3-[3,4,5-trimethoxy-benzylidene-amino]-3H-quinazolin-4-one]",percent protection of control colitis,[1],61.8%
same,anti-ulcerative colitis activity (in words),[1],potent anti-ulcerative colitis activity
same,behavioral changes and/or mortality in mice,Swiss albino mice,did not produce any behavioral changes and/or mortality
same,Blood Urea,[2],65.50 ± 1.9 mg/dL
same,hepatotoxic manifestation,[2],do not result in hepatotoxic manifestation
same,nephrotoxic manifestations,[2],no apparent nephrotoxic manifestations
same,ALT,[2],38.67 ± 0.22 U/l
same,AST,[2],63.23 ± 0.39 U/l
same,Creatinine,[2],0.85 ± 0.02 mg/dL
